Results reported in patent US20260258084A1, “New Peptides as Selective IL-23 Receptor Antagonists” (Sanofi, priority 2022, published 2026).
Values after ≈ are worked out from the molar mass of the structure shown. Read-outs that look alike come from different tables or passages of the source. Starred links: 1 amine or outer side, 2 acyl side, 3 side chain; linkers in the order of their positions; H or OH if unused. Positions of bridges follow the written chain, without caps; N, C: chain ends. Non-standard residues stand in square brackets, D forms with d. Residues, ends and D or L forms follow the SMILES beside them. *: point of attachment. X3 = CN(CCCCC(=O)N[C@@H](CS[*:2])C(=O)[*:1])[*:3]; Trp(7-Me) = Cc1cccc2c(C[C@H](N)C(=O)O)c[nH]c12; 2Nal = N[C@@H](Cc1ccc2ccccc2c1)C(=O)O; AEF = NCCOc1ccc(C[C@H](N)C(=O)O)cc1; 3Pal = N[C@@H](Cc1cccnc1)C(=O)O; X4 = CN(CCCCCC(=O)[*:2])[*:1]; αMeL = CC(C)C[C@](C)(N)C(=O)O; Thp = NC1(C(=O)O)CCOCC1; Me2NCH2CH2 = CN(C)CC*; Aib = CC(C)(N)C(=O)O; Ahx = NCCCCCC(=O)O; Ava = NCCCCC(=O)O; βAla = NCCC(=O)O; Sar = CNCC(=O)O

Experiment: Solubility testing of peptides at different pH
Format: physicochemical
Settings: target concentration 1 mg/ml, 2 hours agitation
In short: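 Solid obtained by drying down DMSO stock was taken up at 1 mg/mL in 50 mM HCl pH 1.2 or 50 mM phosphate pH 6.5, 7.4 or 9.0, agitated gently for 2 h, then filtered (0.45 μm). Solubility by UPLC-UV peak area against a DMSO reference standard curve, corrected for extinction coefficients.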

[1] = 50 mM HCl buffer, 50 mM HCl pH 1.2, read-out: Solubility Buffer pH 1.2
[2] = 50 mM phosphate buffer pH 6.5, read-out: Solubility Buffer pH 6.5
[3] = 50 mM phosphate buffer pH 7.4, read-out: Solubility Buffer pH 7.4
[4] = 50 mM phosphate buffer pH 9.0, read-out: Solubility Buffer pH 9.0

Row | Compound | solubility at 2 h [1] | solubility at 2 h [2] | solubility at 2 h [3] | solubility at 2 h [4]
1 | CC(=O)N[C@H]1CCCCNC(=O)[C@@H]2CSSC[C@H](NC(=O)[C@H](CCC(N)=O)NC(=O)[C@H](Cc3c[nH]c4ccccc34)NC1=O)C(=O)N[C@@H](Cc1ccc(OCCN)cc1)C(=O)N[C@@H](Cc1ccc3ccccc3c1)C(=O)NC(C)(C)C(=O)N[C@H](C(=O)N[C@@H](CC(N)=O)C(=O)NCC(N)=O)CCC(=O)N(C)CCCCC(=O)N2 [compound 15] (Ac-KWQC[AEF][2Nal][Aib]ENG-NH2; linker 1-4-8 via X3) | ≥ 970 µg/mL | ≥ 960 µg/mL | ≥ 910 µg/mL | 670 µg/mL (≈ 421 µM)
2 | CC(C)C[C@@H](NC(=O)[C@H](CC(N)=O)NC(=O)[C@@H]1CCC(=O)NCCCCC(=O)N[C@H]2CSSC[C@H](NC(=O)[C@H](CCC(N)=O)NC(=O)[C@H](Cc3c[nH]c4ccccc34)NC(=O)[C@H]([C@@H](C)O)NC(=O)[C@H](CC(N)=O)NC2=O)C(=O)N[C@@H](Cc2ccc(OCCN(C)C)cc2)C(=O)N[C@@H](Cc2ccc3ccccc3c2)C(=O)N[C@@](C)(CC(C)C)C(=O)N1)C(N)=O [compound 10] ([Ava]CNTWQCY(Me2NCH2CH2)[2Nal][αMeL]EN[dL]-NH2; disulfide 2-7; lactam N-11) | < 10 µg/mL | 70 µg/mL (≈ 40.1 µM) | 10 µg/mL (≈ 5.72 µM) | < 10 µg/mL
3 | C[C@@H](O)[C@@H]1NC(=O)[C@H](CC(N)=O)NC(=O)[C@@H]2CSSC[C@H](NC(=O)[C@H](CCC(N)=O)NC(=O)[C@H](Cc3c[nH]c4ccccc34)NC1=O)C(=O)N[C@@H](Cc1ccc(OCCN)cc1)C(=O)N[C@@H](Cc1ccc3ccccc3c1)C(=O)NC(C)(C)C(=O)N[C@H](C(=O)N[C@@H](CC(N)=O)C(=O)NCC(N)=O)CC(=O)NCCCCCC(=O)N2 [compound 9] ([Ahx]CNTWQC[AEF][2Nal][Aib]DNG-NH2; disulfide 2-7; lactam N-11) | ≥ 1040 µg/mL | ≥ 1060 µg/mL | ≥ 960 µg/mL | 750 µg/mL (≈ 463 µM)
4 | CC(=O)N[C@H]1CCCCNC(=O)[C@@H]2CSSC[C@H](NC(=O)[C@H](CCC(N)=O)NC(=O)[C@H](Cc3c[nH]c4ccccc34)NC1=O)C(=O)N[C@@H](Cc1ccc(OCCN)cc1)C(=O)N[C@@H](Cc1ccc3ccccc3c1)C(=O)NC1(CCOCC1)C(=O)N[C@H](C(=O)N[C@@H](C)C(=O)NCC(N)=O)CCC(=O)N(C)CCCCC(=O)N2 [compound 17] (Ac-KWQC[AEF][2Nal][Thp]EAG-NH2; linker 1-4-8 via X3) | ≥ 1030 µg/mL | ≥ 1000 µg/mL | ≥ 970 µg/mL | ≥ 880 µg/mL
5 | COc1ccc(C[C@@H]2NC(=O)[C@@H]3CSSC[C@H](NC(=O)CCC(=O)NCCCC[C@@H](C(=O)N[C@@H](CC(N)=O)C(=O)N[C@@H](CC(N)=O)C(N)=O)NC(=O)C(C)(C)NC(=O)[C@H](Cc4ccc5ccccc5c4)NC2=O)C(=O)N[C@@H](CC(N)=O)C(=O)N[C@@H]([C@@H](C)O)C(=O)N[C@@H](Cc2c[nH]c4ccccc24)C(=O)N[C@@H](CCC(N)=O)C(=O)N3)cc1 [compound 11] | 120 µg/mL (≈ 72.8 µM) | 100 µg/mL (≈ 60.6 µM) | 90 µg/mL (≈ 54.6 µM) | 80 µg/mL (≈ 48.5 µM)
6 | CC(=O)N[C@H]1CCCCNC(=O)[C@@H]2CSSC[C@H](NC(=O)[C@H](CCC(N)=O)NC(=O)[C@H](Cc3c[nH]c4ccccc34)NC1=O)C(=O)N[C@@H](Cc1ccc(OCCN)cc1)C(=O)N[C@@H](Cc1ccc3ccccc3c1)C(=O)NC(C)(C)C(=O)N[C@H](C(=O)N[C@@H](CC(N)=O)C(=O)N[C@@H](CC(N)=O)C(N)=O)CCC(=O)N(C)CCCCC(=O)N2 [compound 12] (Ac-KWQC[AEF][2Nal][Aib]ENN-NH2; linker 1-4-8 via X3) | 310 µg/mL (≈ 188 µM) | 290 µg/mL (≈ 176 µM) | 190 µg/mL (≈ 115 µM) | 110 µg/mL (≈ 66.8 µM)
7 | CC(=O)N[C@H]1CCCCNC(=O)[C@@H]2CSSC[C@H](NC(=O)[C@H](CCC(N)=O)NC(=O)[C@H](Cc3c[nH]c4ccccc34)NC1=O)C(=O)N[C@@H](Cc1ccc(OCCN)cc1)C(=O)N[C@@H](Cc1ccc3ccccc3c1)C(=O)NC(C)(C)C(=O)N[C@H](C(=O)N[C@@H](C)C(=O)N[C@H](CC(C)C)C(N)=O)CCC(=O)N(C)CCCCC(=O)N2 [compound 19] (Ac-KWQC[AEF][2Nal][Aib]EA[dL]-NH2; linker 1-4-8 via X3) | 10 µg/mL (≈ 6.24 µM) | 20 µg/mL (≈ 12.5 µM) | < 10 µg/mL | < 10 µg/mL

Results, then the compound that gave them:

Row | solubility at 2 h [1] | solubility at 2 h [2] | solubility at 2 h [3] | solubility at 2 h [4] | Compound
8 | < 10 µg/mL | < 10 µg/mL | < 10 µg/mL | < 10 µg/mL | CC(C)C[C@@H](NC(=O)[C@H](CC(N)=O)NC(=O)[C@@H]1CC(=O)N(C)CCCCCC(=O)N[C@H]2CSSC[C@H](NC(=O)[C@H](CCC(N)=O)NC(=O)[C@H](Cc3c[nH]c4ccccc34)NC(=O)[C@H]([C@@H](C)O)NC(=O)[C@H](CC(N)=O)NC2=O)C(=O)N[C@@H](Cc2ccc(OCCN(C)C)cc2)C(=O)N[C@@H](Cc2ccc3ccccc3c2)C(=O)N[C@@](C)(CC(C)C)C(=O)N1)C(N)=O [compound 40] ([X4]CNTWQCY(Me2NCH2CH2)[2Nal][αMeL]DN[dL]-NH2; disulfide 2-7; lactam N-11)
9 | ≥ 1080 µg/mL | ≥ 1060 µg/mL | ≥ 1060 µg/mL | ≥ 1030 µg/mL | CC(=O)NCCCC[C@@H]1NC(=O)[C@H](Cc2c[nH]c3c(C)cccc23)NC(=O)[C@H]([C@@H](C)O)NC(=O)[C@H](CC(N)=O)NC(=O)[C@@H]2CSSC[C@H](NC1=O)C(=O)N[C@@H](Cc1ccc(OCCN(C)C)cc1)C(=O)N[C@@H](Cc1ccc3ccccc3c1)C(=O)NC1(CCOCC1)C(=O)N[C@H](C(=O)N[C@@H](CC(N)=O)C(=O)N[C@@H](Cc1c[nH]cn1)C(=O)N(C)CC(N)=O)CCC(=O)NCCCCC(=O)N2 [compound 46] ([Ava]CNT[Trp(7-Me)]K(Ac)CY(Me2NCH2CH2)[2Nal][Thp]ENH[Sar]-NH2; disulfide 2-7; lactam N-11)
10 | ≥ 970 µg/mL | ≥ 910 µg/mL | 270 µg/mL (≈ 164 µM) | 140 µg/mL (≈ 85.1 µM) | CC(=O)N[C@H]1CCCCNC(=O)[C@@H]2CSSC[C@H](NC(=O)[C@H](CCC(N)=O)NC(=O)[C@H](Cc3c[nH]c4ccccc34)NC1=O)C(=O)N[C@@H](Cc1ccc(OCCN)cc1)C(=O)N[C@@H](Cc1ccc3ccccc3c1)C(=O)NC1(CCOCC1)C(=O)N[C@H](C(=O)N[C@@H](C)C(=O)N[C@H](CC(C)C)C(N)=O)CCC(=O)N(C)CCCCC(=O)N2 [compound 34] (Ac-KWQC[AEF][2Nal][Thp]EA[dL]-NH2; linker 1-4-8 via X3)
11 | ≥ 1110 µg/mL | ≥ 1090 µg/mL | ≥ 1050 µg/mL | ≥ 1040 µg/mL | CC(=O)NCCCC[C@@H]1NC(=O)[C@H](Cc2c[nH]c3c(C)cccc23)NC(=O)[C@H]([C@@H](C)O)NC(=O)[C@H](CC(N)=O)NC(=O)[C@@H]2CSSC[C@H](NC1=O)C(=O)N[C@@H](Cc1ccc(OCCN(C)C)cc1)C(=O)N[C@@H](Cc1ccc3ccccc3c1)C(=O)NC1(CCOCC1)C(=O)N[C@H](C(=O)N[C@@H](CC(N)=O)C(=O)N[C@@H](Cc1c[nH]cn1)C(=O)NCCC(N)=O)CCC(=O)NCCCCC(=O)N2 [compound 49] ([Ava]CNT[Trp(7-Me)]K(Ac)CY(Me2NCH2CH2)[2Nal][Thp]ENH[βAla]-NH2; disulfide 2-7; lactam N-11)
12 | ≥ 1160 µg/mL | ≥ 1060 µg/mL | ≥ 1180 µg/mL | 350 µg/mL (≈ 189 µM) | CC(=O)NCCCC[C@@H]1NC(=O)[C@H](Cc2c[nH]c3c(C)cccc23)NC(=O)[C@H]([C@@H](C)O)NC(=O)[C@H](CC(N)=O)NC(=O)[C@@H]2CSSC[C@H](NC1=O)C(=O)N[C@@H](Cc1ccc(OCCN(C)C)cc1)C(=O)N[C@@H](Cc1ccc3ccccc3c1)C(=O)NC(C)(C)C(=O)N[C@H](C(=O)N[C@@H](CC(N)=O)C(=O)N[C@@H](Cc1c[nH]cn1)C(=O)N(C)CC(N)=O)CCC(=O)NCCCCC(=O)N2 [compound 45] ([Ava]CNT[Trp(7-Me)]K(Ac)CY(Me2NCH2CH2)[2Nal][Aib]ENH[Sar]-NH2; disulfide 2-7; lactam N-11)
13 | ≥ 1000 µg/mL | ≥ 980 µg/mL | 670 µg/mL (≈ 353 µM) | 440 µg/mL (≈ 232 µM) | CC(=O)NCCCC[C@@H]1NC(=O)[C@H](Cc2c[nH]c3c(C)cccc23)NC(=O)[C@H]([C@@H](C)O)NC(=O)[C@H](CC(N)=O)NC(=O)[C@@H]2CSSC[C@H](NC1=O)C(=O)N[C@@H](Cc1ccc(OCCN(C)C)cc1)C(=O)N[C@@H](Cc1ccc3ccccc3c1)C(=O)N[C@@](C)(CC(C)C)C(=O)N[C@H](C(=O)N[C@@H](CC(N)=O)C(=O)N[C@@H](Cc1c[nH]cn1)C(=O)NCCC(N)=O)CCC(=O)NCCCCC(=O)N2 [compound 50] ([Ava]CNT[Trp(7-Me)]K(Ac)CY(Me2NCH2CH2)[2Nal][αMeL]ENH[βAla]-NH2; disulfide 2-7; lactam N-11)
14 | < 10 µg/mL | < 10 µg/mL | < 10 µg/mL | < 10 µg/mL | CC(=O)N[C@H]1CCCCNC(=O)[C@@H]2CSSC[C@H](NC(=O)[C@H](CCC(N)=O)NC(=O)[C@H](Cc3c[nH]c4ccccc34)NC1=O)C(=O)N[C@@H](Cc1ccc(OCCN)cc1)C(=O)N[C@@H](Cc1ccc3ccccc3c1)C(=O)N[C@@](C)(CC(C)C)C(=O)N[C@H](C(=O)N[C@@H](C)C(=O)N[C@H](CC(C)C)C(N)=O)CCC(=O)N(C)CCCCC(=O)N2 [compound 44] (Ac-KWQC[AEF][2Nal][αMeL]EA[dL]-NH2; linker 1-4-8 via X3)
15 | ≥ 1020 µg/mL | ≥ 1100 µg/mL | ≥ 1000 µg/mL | 300 µg/mL (≈ 162 µM) | Cc1cccc2c(C[C@@H]3NC(=O)[C@H]([C@@H](C)O)NC(=O)[C@H](CC(N)=O)NC(=O)[C@@H]4CSSC[C@H](NC(=O)[C@H](CC(C)C)NC3=O)C(=O)N[C@@H](Cc3ccc(OCCN(C)C)cc3)C(=O)N[C@@H](Cc3ccc5ccccc5c3)C(=O)NC3(CCOCC3)C(=O)N[C@H](C(=O)N[C@@H](CC(N)=O)C(=O)N[C@@H](Cc3cccnc3)C(=O)N(C)CC(N)=O)CCC(=O)NCCCCC(=O)N4)c[nH]c12 [compound 24] ([Ava]CNT[Trp(7-Me)]LCY(Me2NCH2CH2)[2Nal][Thp]EN[3Pal][Sar]-NH2; disulfide 2-7; lactam N-11)
